# Experiments:
# SD rats [1] = assay: Single dose toxicity study in SD rats, intravenous infusion; details: intravenous infusion (2 ml/min)
# Experimental: (§4) The clinical observation was carried out for 7 days after a single dose, and the body weight of the animals were measured. On the 8th day, blood samples were taken after anesthesia for detection of hematology, blood biochemistry, coagulation and other indicators. Observation was also conducted by gross anatomy.
# [2] = as above; details: SD, rat, in vivo, iv
# Experimental: as §4
# [3] = Pharmacokinetics study in Beagle dogs, intravenous injection; format: in vivo, Beagle dog; details: dog, plasma, 0.5 mg/kg
# Experimental: (§1) Pharmacokinetics properties were examined by administering compound of the present disclosure and the reference compound (BMS-962212) to Beagle dog through intravenous injection (IV). Blood was collected at various time points after administration. The blood was anticoagulated with EDTA-K2. Plasma samples were obtained by centrifugation, and retained at −80° C. The plasma samples were processed to precipitate the proteins and then analyzed by LC-MS/MS.
# (§2) The pharmacokinetic parameters were calculated using WinNonlin 6.3 software by employing a non-compartmental model.
# SD rats [4] = assay: Repeated dose toxicity study in SD rats, intravenous infusion, daily for 14 days; format: in vivo; details: 60 mg/kg
# Experimental: (§3) The administration was repeated daily for 14 days, while clinical observation, body weight and food intake were recorded. […] Observation by gross anatomy and examination of histopathology were also conducted.
# [5] = as above; format: in vivo; details: rat, in vivo, daily for 14 days, SD rats, read-out: No-observed-adverse-effect level (NOAEL)
# Experimental: as §3
# [6] = Pharmacokinetics study in male rabbits, intravenous injection; format: in vivo; details: male, rabbit, plasma, 1 mg/kg
# Experimental: as §1, with “male rabbits” for “Beagle dog”
# as §2
# [7] = Pharmacokinetics study in male SD rats, intravenous injection; format: in vivo; details: male, SD, rat, plasma, rats, 5 mg/kg
# Experimental: as §1, with “characteristics” for “properties”, “male SD rats” for “Beagle dog”, “centrifugation within 30 min after blood collection,” for “centrifugation,”
# as §2
# [8] = molecular target: human coagulation factor XIa (Homo sapiens (Human), UniProt P03951); assay: Inhibition of coagulation factor XIa (fluorogenic substrate, enzyme kinetic mode); format: biochemical
# Experimental: The following procedures can be used to determine the in vitro inhibition of human coagulation factor XIa by the compound of the present disclosure, as indicated by IC50.
# Enzyme: human coagulation factor XIa; manufacturer: Haemtech;
# Substrate: Boc-Ile-Glu-Gly-Arg-AMC Acetate salt; manufacturer: Bachem;
# Reaction buffer: 50 mM HEPES, 145 mM NaCl, 5 mM KCl, 0.1% BSA, pH 7.4;
# The test compounds were dissolved in reaction buffer at different concentrations. 4 μl of coagulation factor XIa and 4 μl of the test compound were added to a 384 well plate, incubated at room temperature for 10 minutes after mixed thoroughly, and then 4 μl of substrate was added to initiate the reaction. For reading fluorescence signal value, enzyme kinetic mode was used. The wavelength of excitation light was selected to be 380 nm, and the wavelength of emission light was selected to be 460 nm. Read once per 30 seconds, and continuously read 20 cycles. Linear regression analysis of signal value-time was performed during the linear reaction period, and the slope was the reaction rate, and the enzyme activity inhibition rate was calculated according to the following formula. The half inhibitory concentration IC50 values of the compound were fitted using GraphPad Prism 5 software, and results are shown in Table 1. Inhibition rate %=(V0−Vi)/(V0−Vblank)×100.
# In the formula: V0 is the reaction rate of the control well (using the same volume of reaction buffer without adding test compound), Vi is the reaction rate of test compound, Vblank is a blank well (using the same volume of reaction buffer without adding either enzyme or test compound).
# Sequence of human coagulation factor XIa (P03951 388-625): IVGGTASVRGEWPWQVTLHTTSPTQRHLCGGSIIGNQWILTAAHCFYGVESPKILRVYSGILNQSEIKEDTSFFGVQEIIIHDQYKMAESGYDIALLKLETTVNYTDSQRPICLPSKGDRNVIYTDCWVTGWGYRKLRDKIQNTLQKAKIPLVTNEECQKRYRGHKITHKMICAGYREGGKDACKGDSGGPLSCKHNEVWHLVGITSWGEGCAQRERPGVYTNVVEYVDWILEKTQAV
# Sequence of human coagulation factor XIa (P03951 19-387): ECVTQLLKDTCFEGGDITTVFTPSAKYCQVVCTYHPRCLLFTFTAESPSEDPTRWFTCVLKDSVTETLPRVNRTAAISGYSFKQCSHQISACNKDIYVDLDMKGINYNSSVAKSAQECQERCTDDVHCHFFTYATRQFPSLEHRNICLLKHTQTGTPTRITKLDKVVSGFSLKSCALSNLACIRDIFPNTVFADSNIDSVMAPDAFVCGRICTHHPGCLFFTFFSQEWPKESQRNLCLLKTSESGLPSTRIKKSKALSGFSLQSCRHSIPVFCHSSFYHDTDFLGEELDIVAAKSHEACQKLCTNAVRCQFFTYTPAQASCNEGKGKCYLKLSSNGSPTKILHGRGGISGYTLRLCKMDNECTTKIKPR
structure (smiles),measurement,setting,value
"CN1CCN(c2cccc3c2CCN(C(=O)/C=C/c2c(-n4cnnn4)ccc(Cl)c2F)[C@@H]3C(=O)Nc2ccc(C(=O)O)cc2)C(=O)C1 [BMS-962212, reference compound]",Single dose toxicity study in SD rats: observation,SD rats [1]; 50 mg/kg,No abnormality was
same,Single dose toxicity study in SD rats: observation,SD rats [1]; 70 mg/kg,obviously hypoactive
same,Single dose toxicity study in SD rats: observation,SD rats [1]; 75 mg/kg,high mortality
same,Single dose toxicity study in SD rats: observation,"SD rats [1]; 75 mg/kg, listed as Reference compound",Death of the animals
same,MTD at 7 days,[2],70 mg/kg
same,AUC(0-inf),[3],846 ± 80 ng·h/mL
same,AUC(0-t),[3],846 ± 80 ng·h/mL
same,Cmax,[3],1480 ± 40 ng/mL
same,Vd,[3],0.71 ± 0.04 L/kg
same,clearance,[3],9.91 ± 0.94 mL/min/kg
same,half-life,[3],49.8 ± 3 min
same,Repeated dose toxicity study in SD rats: females died (10th and 12th day of the administration),SD rats [4]; daily,female animals. Two
same,Repeated dose toxicity study in SD rats: body weight finding,"SD rats [4]; daily for 14 days, female animals",Significant weight loss
same,NOAEL at 14 days,[5],< 60 mg/kg
same,AUC(0-inf),[6],484 ± 38 ng·h/mL
same,AUC(0-t),[6],476 ± 35 ng·h/mL
same,Cmax,[6],1470 ± 145 ng/mL
same,Vd,[6],1.28 ± 0.28 L/kg
same,clearance,[6],34.6 ± 2.8 mL/min/kg
same,half-life,[6],25.8 ± 6.6 min
same,AUC(0-inf),[7],4090 ± 654 ng·h/mL
same,AUC(0-t),[7],4090 ± 654 ng·h/mL
same,Cmax,[7],11100 ± 1850 ng/mL
same,clearance,[7],20.7 ± 2.7 mL/min/kg
same,half-life,[7],11.4 ± 1.8 min
"C[C@H](N)C(=O)N1CC=C(c2cccc3c2CCN(C(=O)[C@H]2CC(c4cccc(Cl)c4F)=NO2)[C@@H]3C(=O)Nc2ccc(C(=O)O)cc2)CC1 [Example 4, 4-((S)-5-(1-((S)-2-aminopropanoyl)-1,2,3,6-tetrahydropyridin-4-yl)-2-((R)-3-(3-chloro-2-fluorophenyl)-4,5-dihydroisoxazole-5-carbonyl)-1,2,3,4-tetrahydroisoquinoline-1-carboxamido)benzoic acid]",IC50,[8],0.85 ± 0.03 nM
"CC(C)[C@H](N)C(=O)N1CC=C(c2cccc3c2CCN(C(=O)[C@H]2CC(c4cccc(Cl)c4F)=NO2)[C@@H]3C(=O)Nc2ccc(C(=O)O)cc2)CC1 [Example 1, 4-((S)-5-(1-((S)-2-amino-3-methylbutanoyl)-1,2,3,6-tetrahydropyridin-4-yl)-2-((R)-3-(3-chloro-2-fluorophenyl)-4,5-dihydroisoxazole-5-carbonyl)-1,2,3,4-tetrahydroisoquinoline-1-carboxamido)benzoic acid]",IC50,[8],0.33 ± 0.06 nM
"N[C@@H](CCC(=O)N1CC=C(c2cccc3c2CCN(C(=O)[C@H]2CC(c4cccc(Cl)c4F)=NO2)[C@@H]3C(=O)Nc2ccc(C(=O)O)cc2)CC1)C(=O)O [Example 2, 4-((S)-5-(1-((S)-4-amino-4-carboxybutanoyl)-1,2,3,6-tetrahydropyridin-4-yl)-2-((R)-3-(3-chloro-2-fluorophenyl)-4,5-dihydroisoxazole-5-carbonyl)-1,2,3,4-tetrahydroisoquinoline-1-carboxamido)benzoic acid]",IC50,[8],0.21 ± 0.02 nM
"N[C@@H](CCC(=O)O)C(=O)N1CC=C(c2cccc3c2CCN(C(=O)[C@H]2CC(c4cccc(Cl)c4F)=NO2)[C@@H]3C(=O)Nc2ccc(C(=O)O)cc2)CC1 [Example 3, 4-((S)-5-(1-((S)-2-amino-4-carboxybutanoyl)-1,2,3,6-tetrahydropyridin-4-yl)-2-((R)-3-(3-chloro-2-fluorophenyl)-4,5-dihydroisoxazole-5-carbonyl)-1,2,3,4-tetrahydroisoquinoline-1-carboxamido)benzoic acid]",IC50,[8],0.29 ± 0.04 nM
